Biological target: T1, human HSD17B13 (Homo sapiens, UniProt Q7Z5P4)
T1 sequence (Q7Z5P4 20-300): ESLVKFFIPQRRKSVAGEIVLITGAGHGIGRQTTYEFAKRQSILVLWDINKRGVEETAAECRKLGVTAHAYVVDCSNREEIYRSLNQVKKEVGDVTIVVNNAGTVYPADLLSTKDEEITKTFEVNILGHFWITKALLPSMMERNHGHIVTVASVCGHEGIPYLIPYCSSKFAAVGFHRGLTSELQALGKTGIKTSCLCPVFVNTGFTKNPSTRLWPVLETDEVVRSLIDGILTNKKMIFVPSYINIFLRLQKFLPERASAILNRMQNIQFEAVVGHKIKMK
Experiment: Substrate screening of steroid and bioactive lipid libraries against purified recombinant HSD17B13 (NADH-linked luciferase assay)
Format: biochemical
Settings: Bioactive Lipid Library; for HSD17B13 Enzymatic Activity Relative Light Units: 5 μM bioactive lipid (Estradiol Control 50 μM), 500 μM NAD+, 100 ng enzyme, 3 hours at 23° C.; for HSD17B13 Enzymatic Activity Percent Estradiol Control: 5 μM bioactive lipid, normalized to 50 μM estradiol after subtraction of 5% DMSO
Experimental: To understand the functional consequences of premature truncation of the HSD17B13 protein due to rs72613567:TA (the associated variant, rs72613567, is an insertion of an adenine adjacent to the donor splice site of exon six (TA allele)), the enzymatic activity of isoforms A and D was evaluated in vitro using recombinant protein and nicotinamide […] dinucleotide as cofactor. Reactions were performed in a final volume of 40 μl of assay buffer (0.2 M Tris-HCl, pH 7.5) which contained 500 μM NAD^+, 5 μM bioactive lipid or 50 μM steroid (all in a final concentration of 5% DMSO), and 100 ng of recombinant human HSD17B13. Reactions were incubated for 3 hours, at 23° C., after which an equal volume detection reagent was added. Following a 1 hour incubation at 23° C., the relative light units (RLUs) were measured on an Envision Plate Reader (Perkin Elmer). Raw RLU values were normalized as percent of control (50 μM estradiol) following subtraction of negative control (5% DMSO) using the following formula: Percent of control (POC)=100×(Sample (RLU)−Negative CTRLaverage)/(Positive CTRLaverage−Negative CTRLaverage).

Compound	HSD17B13 Enzymatic Activity Relative Light Units [RLU]	HSD17B13 Enzymatic Activity Percent Estradiol Control [%]
15-deoxy-Δ12,14-Prostaglandin J2-biotin	252400	−2.43
CC/C=C\C/C=C\C/C=C\C/C=C\C/C=C\CC1OC1CCC(=O)OC (racemic) [(±)4(5)-EpDPA methyl ester]	338320	1.00
CCCCC/C=C\C/C=C\C/C=C\CC(O)C1CCCC(=O)O1 (racemic) [(±)5(6)-DiHET lactone]	411120	6.50
CCCCCC=CCC=CCC=CCC(O)C(O)CCCC(=O)O (racemic) [(±)5(6)-DiHET]	353120	4.93
CCCCC/C=C\C/C=C\C/C=C\C[C@H]1O[C@H]1CCCC(=O)NCCO (racemic) [(±)5(6)-EET Ethanolamide]	450160	9.45
CCCCC/C=C\C/C=C\C/C=C\CC1OC1CCCC(=O)O (racemic) [(±)5(6)-EET]	360960	5.51
CC/C=C\C/C=C\C/C=C\C/C=C\C=C\C(O)CCCC(=O)O (racemic) [(±)5-HEPE]	344480	4.85
CCCCC/C=C\C/C=C\C/C=C\C=C\C1CCCC(=O)O1 (racemic) [(±)5-HETE lactone]	348120	4.56
CCCCC/C=C\C/C=C\C/C=C\C=C\[C@@H](O)CCCC(=O)OC (racemic) [(±)5-HETE methyl ester]	337600	3.78
CCCCC/C=C\C/C=C\C/C=C\C=C\[C@@H](O)CCCC(=O)O (racemic) [(±)5-HETE]	431960	10.79
CC/C=C\C/C=C\C/C=C\C/C=C\C=C\C(O)C/C=C\CCC(=O)O (racemic) [(±)7-HDHA]	361320	5.54
CCCCC/C=C\C/C=C\CC(O)C(O)C/C=C\CCCC(=O)O (racemic) [(±)8(9)-DiHET]	472120	11.11
CC/C=C\C/C=C\C/C=C\C/C=C\CC(O)/C=C/C=C\CCC(=O)O (racemic) [(±)8-HDHA]	773120	36.16
CC/C=C\C/C=C\C/C=C\C=C\C(O)C/C=C\CCCC(=O)O (racemic) [(±)8-HEPE]	472800	13.83
CCCCC/C=C\C/C=C\C=C\C(O)C/C=C\CCCC(=O)O (racemic) [(±)8-HETE]	592720	22.75
CCCCC/C=C\CC(O)C(O)CCCCCCCC(=O)O (racemic) [(±)9(10)-DiHOME]	391000	4.98
CCCCC/C=C\CC1OC1CCCCCCCC(=O)O (racemic) [(±)9(10)-EpOME]	354560	2.23
CC/C=C\C/C=C\C/C=C\CC(O)/C=C/C=C\CCCC(=O)O (racemic) [(±)9-HEPE]	699960	30.72
CCCCC/C=C\C/C=C\CC(O)/C=C/C=C\CCCC(=O)O (racemic) [(±)9-HETE]	1110120	61.22

Compound	HSD17B13 Enzymatic Activity Relative Light Units [RLU]	HSD17B13 Enzymatic Activity Percent Estradiol Control [%]
CCCCC/C=C\C=C\C(O)CCCCCCCC(=O)O (racemic) [(±)9-HODE]	695320	30.38
CC/C=C\C/C=C\C/C=C\C=C\C(O)C/C=C\C/C=C\CCC(=O)O (racemic) [(±)10-HDHA]	801680	38.28
CCCCC/C=C\CC(O)C(O)C/C=C\C/C=C\CCCC(=O)O (racemic) [(±)11(12)-DiHET]	599000	20.69
CC/C=C\C/C=C\C/C=C\CC(O)/C=C/C=C\C/C=C\CCC(=O)O (racemic) [(±)11-HDHA]	1259280	72.31
CCCCC/C=C\C=C\[C@H](O)CCCCCCCCCC(=O)O (racemic) [(±)11-HEDE]	1334080	77.87
CC/C=C\C/C=C\C=C\C(O)C/C=C\C/C=C\CCCC(=O)O (racemic) [(±)11-HEPE]	791920	37.56
CCCCC/C=C\C=C\C(O)C/C=C\C/C=C\CCCC(=O)O (racemic) [(±)11-HETE]	767720	35.76
CC/C=C\C/C=C\CC(O)/C=C/C=C\C/C=C\CCCC(=O)O (racemic) [(±)12-HEPE]	761600	35.30
CCCCC/C=C\C[C@H](O)/C=C/C=C\C/C=C\CCCC(=O)O (racemic) [(±)12-HETE]	1324640	77.17
CCCCC/C=C\CC(/C=C/C=C\C/C=C\CCCC(=O)O)OO (racemic) [(±)12-HpETE]	165800	−9.27
CC/C=C\C/C=C\C=C\C(O)C/C=C\C/C=C\C/C=C\CCC(=O)O (racemic) [(±)13-HDHA]	1154720	64.54
CCCCCC(O)/C=C/C=C\CCCCCCCC(=O)O (racemic) [(±)13-HODE]	954080	49.62
CC/C=C\CC(O)C(O)C/C=C\C/C=C\C/C=C\CCCC(=O)O (racemic) [(±)14(15)-DiHETE]	356480	2.37
CCCCCC(O)C(O)C/C=C\C/C=C\C/C=C\CCCC(=O)O (racemic) [(±)14(15)-DiHET]	403560	5.93
CCCCCC1OC1C/C=C\C/C=C\C/C=C\CCCC(=O)O (racemic) [(±)14(15)-EET]	305720	1.41
CC/C=C\CC1OC1C/C=C\C/C=C\C/C=C\CCCC(=O)O (racemic) [(±)14(15)-EpETE]	306600	1.86
CCCCCC(O)/C=C/C=C\CCCCCCCCCC(=O)O (racemic) [(±)15-HEDE]	1430720	85.06
CC/C=C\CC(O)/C=C/C=C\C/C=C\C/C=C\CCCC(=O)O (racemic) [(±)15-HEPE]	578600	21.70

Source: patent publication US11479802B2, “Assays for screening activity of modulators of members of the hydroxy steroid (17-beta) dehydrogenase (HSD17B) family” (Regeneron Pharmaceuticals, Inc., priority 2017, dated 2022)
